According to US9498451B2, “Method for treating or preventing radiation damage” (Beijing Institute of Transfusion Medicine, Academy of …, priority 2013, dated 2016):
“Also recorded” adds a separate entry of the source.

Columns and labels:
[1] = tested on: mice radiated by 60Co γ-ray with a lethal dosage; test: Survival rate of mice radiated by 60Co γ ray with a lethal dosage (8.0 Gy) and injected with TA01; type: in vivo, mouse (male C57BL/6); details: 8.0 Gy 60Co whole body irradiation, vs control group
Procedure: 50 male C57BL/6 mice were subjected to whole body irradiation by ^60Co ray with a dosage rate of 1.56 Gy/min and an irradiation dosage of 8.0 Gy. The radiated mice were divided into 5 groups randomly, each group having 10 mice. The 5 groups were injected with TA01 with dosages of 0 mg/kg (control group), 1.25 mg/kg, 2.5 mg/kg, 5 mg/kg and 10 mg/kg, respectively. The injection was performed every three days and continued for 12 days, and the solvent of the injection was a PBS solution. Then, these mice were observed and survival rates of these mice were calculated.
FIG. 2 is a diagram showing survival rates (rates of survival) of mice radiated by ^60Co γ-ray with a lethal dosage and subcutaneously injected with different dosages of TA01.

[2] = tested on: mice radiated by 60Co γ-ray with a sub-lethal dosage; test: Contents of WBC, RBC and PLT in peripheral blood of mice radiated by 60Co γ-ray with a sub-lethal dosage (6.5 Gy); type: in vivo, mouse (male C57); details: 2.5 mg/kg every three days for 5 times, vs PBS group
Procedure: 10 male C57 mice were subjected to whole body irradiation by ^60Co γ ray with a dosage rate of 1.56 Gy/min and an irradiation dosage of 6.5 Gy. The radiated mice were divided into 2 groups randomly, a PBS group having 5 mice and a TA01 group having 5 mice. Every mouse in the TA01 group was injected with 2.5 mg/kg (body weight) TA01 every three days for 5 times, and the solvent of the injection was a PBS solution. Every mouse in the PBS group was treated with the same process as the TA01 group, with the exception that the injection amount of TA01 was 0, in other words, only the PBS solution was injected. After different days for treating, each group of the mice was subjected to a cutting-tail process to collect 20 μL blood which was subsequently added with 2 mL blood cell dilution (commercially available from Jinan Bolai Biotechnology Co., Ltd).
FIG. 3 is diagrams showing contents of WBC, RBC and PLT in peripheral blood of mice radiated by ^60Co γ-ray with a sub-lethal dosage and injected subcutaneously with TA01 or PBS (control) at different time points.

[3] = tested on: hemopoietic stem/progenitor cells in bone marrow; test: Number of hemopoietic stem/progenitor cells (CFU, CFU-G, CFU-GM, CFU-MK) in bone marrow of sub-lethally radiated mice; type: in vivo, mouse (male C57/BL6); details: 6.5 Gy; 2.5 mg/kg every three days; bone marrow on 7th day, 7 days culture; vs control group
Procedure: 6 male C57/BL6 mice were subjected to whole body irradiation by ^60Co γ ray with a dosage rate of 1.56 Gy/min and an irradiation dosage of 6.5 Gy. The radiated mice were divided into 2 groups randomly, a PBS group having 3 mice and a TA01 group having 3 mice. Every mouse in the TA01 group was injected with 2.5 mg/kg TA01 (body weight) every three days, the solvent of the injection was a PBS solution with pH from 7.5 to 8.5. TA01 injection dosage for the PBS group was 0, in other words, only the PBS solution was injected. On the 7th day after the subcutaneous injection, bone marrow blood was collected from each mouse into respective 10 mL tubes pretreated with heparin (commercially available from Tianjing Haoyang Biological Product Technology Limited Liability Company). After the bone marrow blood was mixed with the heparin uniformly, fresh PBS (commercially available from Hyclone Company) was added therein up to 5 mL. After mixing, a uniform mixture of blood and PBS was obtained. Mouse lymphocyte separation medium (commercially available from Tianjing Haoyang Biological Product Technology Limited Liability Company) were subjected to pre-aliquot in centrifuge tubes each having 5 mL of the lymphocyte separation medium (operating in a super clean bench). Then the uniform mixture was gently added on the top of the lymphocyte separation medium, after which a centrifuge was performed at 1500 rpm/min for 20 min. The intermediate layer of cells in a white color was sucked into a new 10 mL centrifuge tube, which was then added with PBS up to 10 mL followed by a mixing and centrifuge at 1500 rpm/min for 5 min. Then obtained upper PBS was removed, and the tube was added with fresh PBS up to 10 ml followed by a mixing and centrifuge at 1500 rpm/min for 5 min. Then the upper PBS was removed, and the tube was added with fresh PBS up to 1 mL followed by a mixing, which was then subjected to a cell number counting. After calculating the number of single nucleus per mL blood, the blood was mixed uniformly with 500 μL semisolid medium (including 0.9% methylcellulose, 15% fetal bovine serum, 100 U/ml penicillin/streptomycin, 1 mM sodium pyruvate, 2 mM glutaminate, 2 mM PFHM II, 200 m/ml transferrin, 1% BSA, 0.45 mM MTG, 30% IMDM, 50 ng/ml SCF, 10 ng/ml TPO, 10 ng/ml IL-3, 10 ng/ml IL-11, 10 ng/ml GM-CSF and 3 U/ml EPO), and cultured in an incubator containing 5% CO2 at 37° C. After 7 days, hematopoietic colony-forming unit (CFU), granulocyte colony-forming unit (CFU-G), granulocyte and macrophage colony-forming unit (CFU-GM) and megakaryocyte colony-forming unit (CFU-MK) were counted respectively, and the results were shown in FIG. 4. […]

[4] = tested on: mice radiated by 60Co γ-ray with a lethal dosage; test: HE staining of intestinal, hepatic and pulmonary tissues of mice radiated by 60Co γ-ray with a lethal dosage (8.0 Gy); type: in vivo, mouse (male C57/BL6); details: 2.5 mg/kg every three days, vs PBS group
Procedure: 6 male C57/BL6 mice were subjected to whole body irradiation by ^60Co γ ray with a dosage rate of 1.56 Gy/min and an irradiation dosage of 8.0 Gy. The radiated mice were divided into 2 groups randomly, a PBS group (control) having 3 mice and a TA01 group having 3 mice. Every mouse in the TA01 group was injected with 2.5 mg/kg TA01 (body weight) every three days, the solvent of the injection was a PBS solution with pH of 7.4. TA01 injection dosage for the PBS group was 0, in other words, only the PBS solution was injected. The mice both two groups were sacrificed by dislocation on the 10th day and the 14th day after the irradiation, respectively. The intestinal, hepatic and pulmonary tissues were collected, fixed with 4% paraformaldehyde and formed into paraffin sections. The paraffin sections were subjected to HE staining, so as to obserse repairing conditions of the intestinal, hepatic and pulmonary tissues, and the results were shown in FIGS. 5 and 6.
FIG. 5 is diagrams showing results of hematoxylin-eosin staining with intestinal tissues of mice radiated by ^60Co γ-ray with a lethal dosage and treated with TA01 or PBS.
FIG. 6 is diagrams showing results of hematoxylin-eosin staining with hepatic and pulmonary tissue of mice radiated by ^60Co γ-ray with a lethal dosage and treated with TA01 or PBS.

Structure (SMILES): CN(C)CCN(CCN(C)C)CCN(C)C [TA01, tris(2-(dimethylamino)ethyl)amine]
- survival rate ([1]; TA01 1.25 mg/kg every three days for 5 times): significantly increased
- survival rate ([1]; TA01 2.5 mg/kg every three days for 5 times, 2.5 mg/kg): significantly increased; also recorded: best survival rate
- survival rate ([1]; TA01 5 mg/kg every three days for 5 times): significantly increased
- survival rate ([1]; TA01 10 mg/kg every three days for 5 times): significantly increased
- content of WBC in peripheral blood ([2]; on the 4th, 7th and 21st day): significantly increased
- content of PLT in peripheral blood ([2]; on the 4th, 14th, 21st and 28th day): significantly increased
- content of RBC in peripheral blood ([2]; on the 21st day): most obviously increased
- number of CFU-G in bone marrow [3]: increased obviously
- number of CFU-GM in bone marrow [3]: increased obviously
- number of CFU-MK in bone marrow [3]: increased obviously
- number of total colony-forming units (CFU) in bone marrow [3]: increased significantly
- repair of intestinal tissue (HE staining) ([4]; 10th and 14th day): improve repairs
- repair of hepatic tissue (HE staining) [4]: improve repairs
- repair of pulmonary tissue (HE staining) [4]: improve repairs
